# Experimental data published in US20160346249A1 (priority 2012, published 2016).
# Where two headings read alike, the source gives them in different places. Marks after values point to notes of the source that are not given here.
# Tests used:
# [1] = biological target: T1, human recombinant MAO-A (Homo sapiens, UniProt P21397); experiment: Metabolism by recombinant MAO-A; format: in vitro ADME
# T1 construct: purchased BD Biosciences, Woburn, Mass
# T1 sequence (P21397 1-527): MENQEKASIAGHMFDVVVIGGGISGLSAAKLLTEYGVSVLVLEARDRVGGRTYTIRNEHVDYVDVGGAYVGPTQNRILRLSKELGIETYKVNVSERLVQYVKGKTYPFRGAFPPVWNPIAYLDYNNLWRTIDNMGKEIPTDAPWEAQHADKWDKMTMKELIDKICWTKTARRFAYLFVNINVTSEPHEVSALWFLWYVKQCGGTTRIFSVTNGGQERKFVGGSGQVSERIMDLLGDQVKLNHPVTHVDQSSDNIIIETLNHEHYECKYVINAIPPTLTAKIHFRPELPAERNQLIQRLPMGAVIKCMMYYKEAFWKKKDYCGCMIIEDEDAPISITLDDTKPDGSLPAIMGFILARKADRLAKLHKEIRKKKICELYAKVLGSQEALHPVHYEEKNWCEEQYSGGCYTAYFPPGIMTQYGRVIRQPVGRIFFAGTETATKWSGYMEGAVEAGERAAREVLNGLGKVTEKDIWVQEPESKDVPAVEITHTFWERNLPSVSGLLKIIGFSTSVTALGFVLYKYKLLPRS
# Description: Incubation systems (ca. 0.2 mL) of human recombinant MAO-A (1.0 mg/mL) and MAO-B (1.0 mg/mL) (BD Biosciences, Woburn, Mass.) were prepared in triplicated 0.1 M potassium phosphate buffer (pH 7.4) (BD Biosciences, Woburn, Mass.). […] The negative samples were prepared as described above, with the exception that instead of HLM, HLmito, or recombinant enzymes, water was added to the incubation mixture.
# [2] = Acute intravenous or oral rat bioavailability study; format: in vivo; conditions: plasma, oral 10 mg/kg vs IV 5 mg/kg, both sexes, read-out: absolute oral bioavailability
# Description: Plasma samples were assayed using a validated LC/MS/MS assay.
# [3] = Rabbit developmental toxicity study with toxicokinetics; conditions: female, New Zealand white, in vivo; for AUC(0-t) / Cmax / Tmax: pregnant rabbits; for AUC(0-t): GD 20, read-out: AUC0-24; for Cmax / Tmax: GD 20
# Description: For the toxicology assessment, 27-33 per rabbits per group were dosed.
# On GD 29, a laparohysterectomy was performed on each surviving female.
# [4] = Phase 2 efficacy study in patients with Major Depressive Disorder; format: in vivo, human
# Description: Subjects were identified who were between the ages of 18-65 (inclusive), and met criteria for Major Depressive Disorder in accordance with the Diagnostic and Statistical manual of Mental Disorders-IV-TR and confirmed by the MINI International Neuropsychiatric Interview.
# Subjects were required to refrain from taking antidepressants, anticonvulsants including gabapentin and pregabalin, neuroleptics, MAO inhibitors, barbiturates, benzodiazepines, stimulants, antipsychotics, lithium, anxiolytics and beta blockers starting two weeks prior to the study and continuing until after the follow-up visit.
# Samples were drawn to assess total bilirubin, alkaline phosphatase, ALT (SGPT), AST (SGOT), blood urea nitrogen (BUN), creatinine, glucose, uric acid, calcium, phosphorus, total protein, albumin, total cholesterol, LDL, HDL, triglycerides, sodium, potassium, bicarbonate, chloride, GGT and creatine kinase, Hepatitis B, C and HIV serologies, TSH, drug screen and serum pregnancy test for females.
# Efficacy was determined by measuring the change from baseline in the Montgomery-Asberg Depression Rating Scale (MADRS), the HAMD-17, the Clinical Global Impression Global Improvement Scale (CGI-I), the Clinical Global Impression-Severity scale (CGI-S) and the Derogatis Interview for Sexual Functioning Self-Report (DISF-SR). […] Comparisons between treatment groups based on MADRS (the primary efficacy parameter), HAMD-17, Anhedonia, DISF-SR, CGI-I and CGI-S scores were analyzed using a mixed-repeated measures (MMRM) analysis model including factors for Subject, Visit, Treatment Arm and Baseline value as a covariate. Adjusted least-squares means from these models are presented. Comparisons between groups were made at each post-baseline visit using model-based contrasts and adjusted degrees of freedom. For these analyses no explicit data imputations were made prior to the analysis. Response and remission categorical data were analyzed using chi-square tests. Inferential analyses of safety data were conducted with ANOVA models or chi-square tests. Two-tail alpha was set to 0.05. All analyses were conducted using SAS version 9.2.
# [5] = 14-day mouse toxicity and toxicokinetic study; conditions: both, Crl:CD-1(ICR) BR, in vivo, po
# [6] = 100 mg, Visit 8, LOCF, Completers, 50% reduction or more of baseline total score
# [7] = Visit 8 (Week 6), MMRM, MITT, n = 30
structure (smiles),measurement,setting,value
"O=C1NCC2(c3ccc(Cl)c(Cl)c3)CC12 (stereo not drawn) [EB-10101, 5-(3,4-dichloro-phenyl)-3-aza-bicyclo[3.1.0]hexan-2-one]",MAO-A mediation of formation,[1]; human recombinant MAO-A,MAO-A mediated
same,EB-10101 formation rate (mean ± SD),"[1]; recombinant MAO-A 1 mg/mL, EB-1010 1 μM, 30 min, underestimated (substrate limited)",7.0 ± 2.7^b pmol/min/mg protein
"Clc1ccc([C@]23CNC[C@H]2C3)cc1Cl [amitifadine, (+)-1-(3,4-dichlorophenyl)-3-azabicyclo[3.1.0]hexane]",bioavailability,[2],≥ 77%
same,AUC(0-t),"[3]; oral, 20 mg/kg/day",19200 ng·h/mL
same,NOAEL,"[3]; po, oral gavage GD 7-20, read-out: NOAEL for developmental toxicity",20 mg/kg/day
same,NOAEL,"[3]; po, oral gavage GD 7-20, read-out: NOAEL for maternal toxicity",10 mg/kg/day
same,Cmax,"[3]; po, 3 mg/kg/day",309 ng/mL
same,Tmax,"[3]; po, 3 mg/kg/day",1 h
same,AUC(0-t),"[3]; po, 3 mg/kg/day",1320 ng·h/mL
same,Cmax,"[3]; po, 10 mg/kg/day",1090 ng/mL
same,Tmax,"[3]; po, 10 mg/kg/day",1 h
same,AUC(0-t),"[3]; po, 10 mg/kg/day",5860 ng·h/mL
same,Cmax,"[3]; po, 20 mg/kg/day",3200 ng/mL
same,Tmax,"[3]; po, 20 mg/kg/day",1 h
same,DISF-SR scores vs placebo,"[4]; 100 mg, low and high baseline groups","no differences between (+)-1-(3,4-dichlorophenyl)-3-azabicyclo[3.1.0]hexane 100 mg and placebo"
same,"Response rate, HAMD-17 (%)",[4]; [6],55.00%
same,"Response rate, MADRS (%)",[4]; [6],40.00%
same,"Remission rate, HAMD-17 (%)","[4]; 100 mg, Visit 8, LOCF, Completers, HAMD-17 ≦ 7",20.00%
same,"Remission rate, MADRS (%)","[4]; 100 mg, Visit 8, LOCF, Completers, MADRS ≦ 12",30.00%
same,Anhedonia factor (LS Mean - SE),[4]; [7],7.92 (0.50)
same,CGI-I (LS Mean - SE),[4]; [7],2.13 (0.20)
same,CGI-S (LS Mean - SE),[4]; [7],3.31 (0.15)
same,HAMD-17 (LS Mean - SE),[4]; [7],14.90 (1.40)
same,MADRS (LS Mean - SE),[4]; [7],18.16 (1.21)
same,"MADRS, Difference (95% CI) placebo vs drug","[4]; Visit 8, MMRM, MITT, P = 0.028","3.83 (0.41, 7.26)"
same,"CGI-I, Difference (95% CI) placebo vs drug","[4]; Visit 8, MMRM, MITT, P = 0.030","0.62 (0.06, 1.18)"
same,"Anhedonia factor, Difference (95% CI) placebo vs drug","[4]; Visit 8, MMRM, MITT, P = 0.049","1.41 (0.01, 2.82)"
same,"HAMD-17, Difference (95% CI) placebo vs drug","[4]; Visit 8, MMRM, MITT, P = 0.125","3.12 (−0.87, 7.12)"
same,"CGI-S, Difference (95% CI) placebo vs drug","[4]; Visit 8, MMRM, MITT, P = 0.306","0.22 (−0.21, 0.66)"
same,"Diastolic BP - Standing, Mean Change from baseline","[4]; Visit 8, Safety Population, n = 33, P value vs. placebo 0.017",−3.00 mm Hg
same,"Supine Pulse, Mean Change from baseline","[4]; Visit 8, Safety Population, n = 33, P value vs. placebo 0.145",1.55 beats per minute
same,"LDL Cholesterol Fasting, Mean Change from baseline","[4]; Visit 8, Safety Population, n = 33, P value vs. placebo 0.374",-4.29 mg/dL
same,"Total Cholesterol Fasting, Mean Change from baseline","[4]; Visit 8, Safety Population, n = 33, P value vs. placebo 0.412",-5.86 mg/dL
same,"Systolic BP - Standing, Mean Change from baseline","[4]; Visit 8, Safety Population, n = 33, P value vs. placebo 0.509",0.069 mm Hg
same,"Triglycerides Fasting, Mean Change from baseline","[4]; Visit 8, Safety Population, n = 33, P value vs. placebo […]",-12.00 mg/dL
same,"Systolic BP - Supine, Mean Change from baseline","[4]; Visit 8, Safety Population, n = 33, P value vs. placebo 0.904",2.58 mm Hg
same,"Diastolic BP - Supine, Mean Change from baseline","[4]; Visit 8, Safety Population, n = 33, P value vs. placebo 0.961",−0.38 mm Hg
same,"Weight, Mean Change from baseline","[4]; Visit 8, Safety Population, n = 33, P value vs. placebo 0.965",0.078 kg
same,"overall statistical effect size (Cohen's d), MADRS",[4]; Week 6,−0.63
same,"MADRS total score, estimated LS mean change from baseline (MMRM)","[4]; Week 6, placebo […], p=0.028",18.16
same,patients who reported an adverse treatment event,"[4]; human, in vivo",30.30%
same,"Treatment-Emergent Adverse Event: Abdominal Pain (NOS), % of Patients",[4]; n = 33,6.06%
same,"Treatment-Emergent Adverse Event: Abdominal Pain (NOS), number of patients",[4]; n = 33,2
same,"Treatment-Emergent Adverse Event: Anxiety, % of Patients",[4]; n = 33,6.06%
same,"Treatment-Emergent Adverse Event: Anxiety, number of patients",[4]; n = 33,2
same,"Treatment-Emergent Adverse Event: Diarrhea NOS, % of Patients",[4]; n = 33,6.06%
same,"Treatment-Emergent Adverse Event: Diarrhea NOS, number of patients",[4]; n = 33,2
same,"Treatment-Emergent Adverse Event: Emotional Disturbance NOS, % of Patients",[4]; n = 33,6.06%
same,"Treatment-Emergent Adverse Event: Emotional Disturbance NOS, number of patients",[4]; n = 33,2
same,"Treatment-Emergent Adverse Event: Headache NOS, % of Patients",[4]; n = 33,9.09%
same,"Treatment-Emergent Adverse Event: Headache NOS, number of patients",[4]; n = 33,3
same,"Treatment-Emergent Adverse Event: Irritability, % of Patients",[4]; n = 33,6.06%
same,"Treatment-Emergent Adverse Event: Irritability, number of patients",[4]; n = 33,2
same,"Treatment-Emergent Adverse Event: Nausea, % of Patients",[4]; n = 33,6.06%
same,"Treatment-Emergent Adverse Event: Nausea, number of patients",[4]; n = 33,2
same,"Treatment-Emergent Adverse Event: Rash NOS, % of Patients",[4]; n = 33,6.06%
same,"Treatment-Emergent Adverse Event: Rash NOS, number of patients",[4]; n = 33,2
same,"Treatment-Emergent Adverse Event: Upper Respiratory Tract Infection NOS, % of Patients",[4]; n = 33,6.06%
same,"Treatment-Emergent Adverse Event: Upper Respiratory Tract Infection NOS, number of patients",[4]; n = 33,2
same,NOAEL at 14 days,[5],100 mg/kg/day
